In assay [1] the target is T1, Intestinal-type alkaline phosphatase (Homo sapiens, UniProt P09923). As to the kind of experiment: human intestinal alkaline phosphatase activators, dose response, biochemical, luminescence, uHTS hits (AID 463120). The assay is classed as functional.
In assay [2] the target is T2, Alkaline phosphatase, tissue-nonspecific isozyme (Homo sapiens, UniProt P05186).
T2 sequence (P05186 whole entry): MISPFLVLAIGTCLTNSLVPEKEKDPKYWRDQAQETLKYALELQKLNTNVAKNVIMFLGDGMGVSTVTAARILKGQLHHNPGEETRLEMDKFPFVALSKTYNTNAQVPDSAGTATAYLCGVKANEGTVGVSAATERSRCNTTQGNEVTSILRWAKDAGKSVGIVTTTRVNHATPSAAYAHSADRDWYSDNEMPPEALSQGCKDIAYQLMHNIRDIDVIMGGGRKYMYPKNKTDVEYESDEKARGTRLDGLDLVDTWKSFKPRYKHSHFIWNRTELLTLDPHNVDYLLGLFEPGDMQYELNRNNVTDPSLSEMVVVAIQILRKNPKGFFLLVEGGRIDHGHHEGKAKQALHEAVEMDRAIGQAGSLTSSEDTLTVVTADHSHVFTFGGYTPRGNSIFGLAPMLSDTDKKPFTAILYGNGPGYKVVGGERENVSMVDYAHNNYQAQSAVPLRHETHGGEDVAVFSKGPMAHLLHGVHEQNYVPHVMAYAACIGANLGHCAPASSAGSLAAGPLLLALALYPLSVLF
As to the kind of experiment: TNAP enzyme activators, dose response, selectivity assay for human IAP activator project, biochemical, TNAP isozyme, human IAP uHTS hits (AID 488886).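 Also: potency of compounds raising TNAP activity as a selectivity check on IAP activators.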 Format: functional.

The target of assay [3] is T1, Intestinal-type alkaline phosphatase. As to the kind of experiment: human IAP activators, dose response, biochemical, luminescent, uHTS hits, set 2 (AID 488817).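 Also: potency of activators that raise enzyme activity.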 Format: functional.
Assay [4] concerns the target Intestinal-type alkaline phosphatase (Mus musculus, UniProt P24822). In words: PubChem AID 488874. The assay is classed as functional.
For assay [5], the target named is Voltage-dependent T-type calcium channel subunit alpha-1H (Homo sapiens, UniProt O95180). As to the kind of experiment: Cav3.2 T-type channel inhibitors, cell-based, synthetic library set 1, calcium flux (AID 493022). The assay is classed as functional. A general note: Calcium assays in cells follow changes in intracellular calcium, usually with a dye or a luminescent sensor.

Another assay has as its target Wee1-like protein kinase (Homo sapiens, UniProt P30291). In words: G2/M cell cycle arrest in HeLa, late-stage follow-up, mechanism study for Wee1 degradation inhibitor project, FACS, panel member Wee1 Degradation (AID 2088).
For assay [6], the target named is G2/mitotic-specific cyclin-B1 (Homo sapiens, UniProt P14635). As to the kind of experiment: G2/M cell cycle arrest in HeLa, late-stage follow-up, mechanism study for Wee1 degradation inhibitor project, FACS, panel member Cyclin B Degradation (AID 2088).
The next assay deals with Trypanosoma cruzi. As to the kind of experiment: growth inhibition of intracellular Trypanosoma cruzi, dose response, cell-based, plate reader, dry powder, set 3 (AID 493197). Format: functional.
The nature of assay [7]: cytotoxicity in NIH/3T3 mouse fibroblasts, dose response, cytotoxicity control, cell-based, mouse embryonic fibroblasts, dry powder, set 2 (AID 493247). The assay is classed as functional. The note with it: Fibroblast.
The target of assay [8] is T3, Scavenger receptor class B member 1 (Mus musculus, UniProt Q61009).
T3 sequence (Q61009 whole entry): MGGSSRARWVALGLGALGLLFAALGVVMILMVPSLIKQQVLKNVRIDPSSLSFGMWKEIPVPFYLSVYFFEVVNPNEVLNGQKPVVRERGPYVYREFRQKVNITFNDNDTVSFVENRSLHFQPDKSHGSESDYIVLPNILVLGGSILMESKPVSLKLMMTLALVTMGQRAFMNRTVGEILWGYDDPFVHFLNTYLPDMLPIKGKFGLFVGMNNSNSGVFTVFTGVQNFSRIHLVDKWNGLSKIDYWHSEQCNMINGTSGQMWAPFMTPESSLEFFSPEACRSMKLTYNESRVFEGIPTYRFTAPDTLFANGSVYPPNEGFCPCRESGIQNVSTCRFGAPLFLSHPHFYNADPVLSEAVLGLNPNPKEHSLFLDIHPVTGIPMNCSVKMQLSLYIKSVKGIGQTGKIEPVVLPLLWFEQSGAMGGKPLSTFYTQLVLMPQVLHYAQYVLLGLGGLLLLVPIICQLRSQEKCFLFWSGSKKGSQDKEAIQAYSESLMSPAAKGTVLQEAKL
As to the kind of experiment: inhibitors of SR-BI mediated HDL lipid uptake, dose response, ldlA[mSR-BI] cells, fluorescence, cherry pick (AID 493194).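 Also: cellular uptake of fluorescent DiI-labeled HDL measured as cell fluorescence.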 The assay is classed as functional, cell-based.

In the next assay the target is T4, Leucine aminopeptidase (Plasmodium falciparum 3D7, UniProt Q8IL11).
T4 sequence (Q8IL11 whole entry): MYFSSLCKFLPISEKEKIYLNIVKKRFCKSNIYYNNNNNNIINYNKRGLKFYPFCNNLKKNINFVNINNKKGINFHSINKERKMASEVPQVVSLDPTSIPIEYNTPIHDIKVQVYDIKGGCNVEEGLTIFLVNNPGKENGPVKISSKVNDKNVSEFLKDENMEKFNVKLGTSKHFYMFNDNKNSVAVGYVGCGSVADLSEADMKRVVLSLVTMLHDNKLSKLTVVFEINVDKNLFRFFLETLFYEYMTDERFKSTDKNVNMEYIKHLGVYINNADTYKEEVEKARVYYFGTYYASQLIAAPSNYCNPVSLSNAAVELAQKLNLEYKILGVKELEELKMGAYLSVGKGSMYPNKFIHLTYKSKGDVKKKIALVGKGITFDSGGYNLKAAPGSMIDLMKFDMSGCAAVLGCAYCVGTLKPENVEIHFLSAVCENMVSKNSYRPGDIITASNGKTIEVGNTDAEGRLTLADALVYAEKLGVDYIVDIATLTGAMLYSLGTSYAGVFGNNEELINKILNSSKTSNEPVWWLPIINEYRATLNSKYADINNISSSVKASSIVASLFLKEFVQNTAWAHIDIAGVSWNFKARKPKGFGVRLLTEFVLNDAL
In words: P. falciparum M17LAP inhibitors, primary screen, biochemical, fluorogenic H-Leu-NHMec substrate, 1536-well (AID 1619). Format: functional.

The target of assay [9] is Induced myeloid leukemia cell differentiation protein Mcl-1 (Homo sapiens, UniProt Q07820). The assay is classed as functional.
Assay [10] has as its target NACHT, LRR and PYD domains-containing protein 3 (Homo sapiens, UniProt Q96P20). As to the kind of experiment: NALP3 inhibitors in yeast, dose response, luminescent (AID 488799). The assay is classed as functional.
The target in assay [11] is Dual specificity protein phosphatase 3 (Homo sapiens, UniProt P51452). As to the kind of experiment: VHR1 inhibitor Ki determination, SAR follow-up, biochemical, colorimetric (AID 2004).

Calls of active or inactive are those of the source. A value given as a limit tells only on which side of the number the result lay.

T1 sequence (P09923 whole entry): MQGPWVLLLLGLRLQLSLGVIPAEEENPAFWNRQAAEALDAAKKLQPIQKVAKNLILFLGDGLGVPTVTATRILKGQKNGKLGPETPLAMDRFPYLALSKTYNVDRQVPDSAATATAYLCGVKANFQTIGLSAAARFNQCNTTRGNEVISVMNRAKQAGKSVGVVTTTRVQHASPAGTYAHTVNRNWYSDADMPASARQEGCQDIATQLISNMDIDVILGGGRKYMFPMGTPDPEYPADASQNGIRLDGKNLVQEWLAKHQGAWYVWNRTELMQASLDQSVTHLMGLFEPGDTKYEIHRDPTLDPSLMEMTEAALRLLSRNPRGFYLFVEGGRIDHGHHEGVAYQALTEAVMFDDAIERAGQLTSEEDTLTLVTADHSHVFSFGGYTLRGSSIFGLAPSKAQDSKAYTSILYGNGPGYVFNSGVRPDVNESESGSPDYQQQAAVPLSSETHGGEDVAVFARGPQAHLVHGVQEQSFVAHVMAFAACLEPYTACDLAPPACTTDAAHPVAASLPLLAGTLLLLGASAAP
Sequence of Voltage-dependent T-type calcium channel subunit alpha-1H (O95180 whole entry): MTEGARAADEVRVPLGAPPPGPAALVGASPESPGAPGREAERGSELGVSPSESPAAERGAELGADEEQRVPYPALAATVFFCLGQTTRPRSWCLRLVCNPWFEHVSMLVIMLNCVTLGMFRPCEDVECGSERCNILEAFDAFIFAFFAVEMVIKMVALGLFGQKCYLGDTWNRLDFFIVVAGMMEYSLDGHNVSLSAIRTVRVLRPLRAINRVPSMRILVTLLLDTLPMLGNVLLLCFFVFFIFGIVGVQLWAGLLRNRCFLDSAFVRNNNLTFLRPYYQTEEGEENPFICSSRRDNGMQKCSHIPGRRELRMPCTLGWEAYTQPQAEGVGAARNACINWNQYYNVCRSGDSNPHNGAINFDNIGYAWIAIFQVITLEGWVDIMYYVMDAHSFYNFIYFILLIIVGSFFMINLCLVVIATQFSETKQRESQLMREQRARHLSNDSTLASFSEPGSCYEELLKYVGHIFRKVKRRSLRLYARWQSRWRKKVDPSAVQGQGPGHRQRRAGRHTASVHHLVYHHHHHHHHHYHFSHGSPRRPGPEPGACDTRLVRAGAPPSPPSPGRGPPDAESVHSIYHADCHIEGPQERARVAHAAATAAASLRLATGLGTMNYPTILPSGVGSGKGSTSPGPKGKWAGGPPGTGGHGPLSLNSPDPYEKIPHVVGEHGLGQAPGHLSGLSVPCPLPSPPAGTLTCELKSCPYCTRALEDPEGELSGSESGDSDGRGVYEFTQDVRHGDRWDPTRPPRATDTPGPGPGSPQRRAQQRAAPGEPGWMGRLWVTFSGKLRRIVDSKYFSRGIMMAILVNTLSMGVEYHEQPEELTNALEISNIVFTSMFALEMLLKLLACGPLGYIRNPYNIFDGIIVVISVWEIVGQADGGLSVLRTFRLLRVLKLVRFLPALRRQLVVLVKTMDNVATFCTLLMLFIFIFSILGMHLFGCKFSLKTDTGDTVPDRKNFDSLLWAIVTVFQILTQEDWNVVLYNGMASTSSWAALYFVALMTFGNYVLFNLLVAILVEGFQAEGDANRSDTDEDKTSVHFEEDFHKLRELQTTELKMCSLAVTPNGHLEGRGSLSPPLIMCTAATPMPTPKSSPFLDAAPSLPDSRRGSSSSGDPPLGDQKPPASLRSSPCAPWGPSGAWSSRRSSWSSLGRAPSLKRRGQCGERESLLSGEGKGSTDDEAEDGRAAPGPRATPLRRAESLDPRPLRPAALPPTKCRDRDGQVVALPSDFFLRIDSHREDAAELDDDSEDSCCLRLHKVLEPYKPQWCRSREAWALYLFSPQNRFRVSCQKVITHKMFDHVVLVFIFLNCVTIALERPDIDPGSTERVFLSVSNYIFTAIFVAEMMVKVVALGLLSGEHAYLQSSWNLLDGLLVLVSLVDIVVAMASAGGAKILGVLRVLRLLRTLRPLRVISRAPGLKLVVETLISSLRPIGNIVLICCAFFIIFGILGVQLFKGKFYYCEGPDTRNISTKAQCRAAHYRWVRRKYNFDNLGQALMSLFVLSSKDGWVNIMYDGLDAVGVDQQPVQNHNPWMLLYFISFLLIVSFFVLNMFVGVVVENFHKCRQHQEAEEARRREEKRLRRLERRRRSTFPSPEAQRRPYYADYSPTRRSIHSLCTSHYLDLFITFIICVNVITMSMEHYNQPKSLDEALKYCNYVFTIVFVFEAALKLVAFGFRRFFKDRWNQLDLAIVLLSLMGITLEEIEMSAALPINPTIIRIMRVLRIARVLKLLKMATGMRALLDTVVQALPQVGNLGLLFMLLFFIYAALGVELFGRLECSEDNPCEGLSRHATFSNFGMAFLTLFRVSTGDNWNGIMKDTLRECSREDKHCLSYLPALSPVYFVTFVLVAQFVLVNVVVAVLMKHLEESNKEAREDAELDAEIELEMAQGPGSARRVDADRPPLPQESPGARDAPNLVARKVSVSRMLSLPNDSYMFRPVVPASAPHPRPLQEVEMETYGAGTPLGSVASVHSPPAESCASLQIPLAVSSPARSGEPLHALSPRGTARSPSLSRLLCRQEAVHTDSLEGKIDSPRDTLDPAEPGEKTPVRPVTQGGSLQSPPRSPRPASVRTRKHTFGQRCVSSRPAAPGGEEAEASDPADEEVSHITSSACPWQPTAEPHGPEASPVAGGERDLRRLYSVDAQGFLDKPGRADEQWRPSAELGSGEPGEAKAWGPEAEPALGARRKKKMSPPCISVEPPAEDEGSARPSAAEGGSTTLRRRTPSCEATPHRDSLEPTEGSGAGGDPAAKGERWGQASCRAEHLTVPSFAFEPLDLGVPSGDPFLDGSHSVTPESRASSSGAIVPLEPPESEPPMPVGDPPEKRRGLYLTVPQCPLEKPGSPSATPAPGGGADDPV
Sequence of Induced myeloid leukemia cell differentiation protein Mcl-1 (Q07820 whole entry, the tested form may be a part): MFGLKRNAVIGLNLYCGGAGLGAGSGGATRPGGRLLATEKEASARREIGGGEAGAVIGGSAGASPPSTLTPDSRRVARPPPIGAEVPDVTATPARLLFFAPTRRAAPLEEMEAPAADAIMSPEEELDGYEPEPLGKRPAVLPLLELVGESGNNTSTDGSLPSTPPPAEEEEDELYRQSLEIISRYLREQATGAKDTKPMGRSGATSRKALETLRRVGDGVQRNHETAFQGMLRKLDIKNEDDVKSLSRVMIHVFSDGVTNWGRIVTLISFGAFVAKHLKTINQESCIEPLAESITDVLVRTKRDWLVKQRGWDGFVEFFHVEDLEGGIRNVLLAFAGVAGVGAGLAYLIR
Sequence of Dual specificity protein phosphatase 3 (P51452 whole entry): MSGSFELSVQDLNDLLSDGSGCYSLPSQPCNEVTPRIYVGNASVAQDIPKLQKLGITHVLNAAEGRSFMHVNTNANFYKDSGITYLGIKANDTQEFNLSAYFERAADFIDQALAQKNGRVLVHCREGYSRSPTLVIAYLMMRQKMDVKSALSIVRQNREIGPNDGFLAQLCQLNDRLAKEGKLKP
Sequence of NACHT, LRR and PYD domains-containing protein 3 (Q96P20 whole entry, the tested form may be a part): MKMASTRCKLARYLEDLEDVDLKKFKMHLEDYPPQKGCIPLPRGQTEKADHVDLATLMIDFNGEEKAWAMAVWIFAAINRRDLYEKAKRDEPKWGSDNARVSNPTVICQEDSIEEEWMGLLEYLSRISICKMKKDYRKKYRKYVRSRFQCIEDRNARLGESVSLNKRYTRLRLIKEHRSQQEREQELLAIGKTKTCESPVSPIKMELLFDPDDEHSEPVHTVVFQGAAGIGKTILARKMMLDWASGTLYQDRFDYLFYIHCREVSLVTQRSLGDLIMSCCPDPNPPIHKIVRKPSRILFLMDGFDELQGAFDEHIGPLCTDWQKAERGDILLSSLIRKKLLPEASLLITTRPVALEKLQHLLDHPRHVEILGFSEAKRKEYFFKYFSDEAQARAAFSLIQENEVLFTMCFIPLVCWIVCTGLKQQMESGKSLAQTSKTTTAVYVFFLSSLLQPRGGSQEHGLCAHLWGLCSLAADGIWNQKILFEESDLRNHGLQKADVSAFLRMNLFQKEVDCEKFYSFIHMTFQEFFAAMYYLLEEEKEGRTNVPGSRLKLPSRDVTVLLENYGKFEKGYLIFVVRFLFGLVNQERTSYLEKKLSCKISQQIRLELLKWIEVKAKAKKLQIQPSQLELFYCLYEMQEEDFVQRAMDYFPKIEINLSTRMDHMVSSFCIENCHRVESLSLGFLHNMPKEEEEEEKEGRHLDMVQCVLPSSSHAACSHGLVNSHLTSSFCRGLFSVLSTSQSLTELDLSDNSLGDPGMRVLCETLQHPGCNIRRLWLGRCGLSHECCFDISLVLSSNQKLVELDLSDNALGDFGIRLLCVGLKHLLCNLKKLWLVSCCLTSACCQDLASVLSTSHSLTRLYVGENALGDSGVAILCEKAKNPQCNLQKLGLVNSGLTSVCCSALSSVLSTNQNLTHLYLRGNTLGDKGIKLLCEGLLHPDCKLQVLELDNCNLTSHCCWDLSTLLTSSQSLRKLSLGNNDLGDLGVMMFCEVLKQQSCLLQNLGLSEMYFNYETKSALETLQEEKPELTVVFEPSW
Sequence of Wee1-like protein kinase (P30291 whole entry): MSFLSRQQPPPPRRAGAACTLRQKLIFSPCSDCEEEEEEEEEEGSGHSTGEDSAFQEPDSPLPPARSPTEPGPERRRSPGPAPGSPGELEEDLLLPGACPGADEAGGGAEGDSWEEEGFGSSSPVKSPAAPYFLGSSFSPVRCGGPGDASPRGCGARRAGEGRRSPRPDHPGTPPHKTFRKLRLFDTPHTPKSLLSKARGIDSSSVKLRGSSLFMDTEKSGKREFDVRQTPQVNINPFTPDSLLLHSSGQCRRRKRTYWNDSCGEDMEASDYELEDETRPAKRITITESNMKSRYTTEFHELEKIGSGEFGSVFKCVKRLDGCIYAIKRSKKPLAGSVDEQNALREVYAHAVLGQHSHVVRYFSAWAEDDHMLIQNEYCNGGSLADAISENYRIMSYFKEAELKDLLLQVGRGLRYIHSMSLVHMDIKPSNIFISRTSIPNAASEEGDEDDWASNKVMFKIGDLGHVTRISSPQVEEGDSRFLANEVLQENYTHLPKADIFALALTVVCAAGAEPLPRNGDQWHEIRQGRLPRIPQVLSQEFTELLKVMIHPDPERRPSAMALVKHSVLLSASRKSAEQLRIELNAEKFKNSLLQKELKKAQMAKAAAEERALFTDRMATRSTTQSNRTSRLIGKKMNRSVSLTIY

For orientation: EC50 means the midpoint of the concentration-response curve. For orientation: IC50 means the midpoint of a concentration-inhibition curve. With `O=C(NNC(=S)NC(=O)c1ccccc1)c1cccnc1`, the EC50 in assay [1] is 12.1 µM (active); in assay [2] it was 16.4 µM (active); in assay [3], 16.4 µM (active). Further, in [4], the IC50 is 74.2 µM (active).
With `CC(Oc1ccccc1)C(=O)Nc1nnc(-c2ccc3c(c2)OCO3)o1` (centres undefined), in assay [5], the concentration for a half-maximal effect (EC50) is 10 µM (active).
For `Cc1cc(O)nc(-n2nc(C)cc2NC(=O)/C=C/c2ccccc2)n1`, the EC50 on Wee1-like protein kinase was > 16.6 µM (active); in assay [6] it was > 49.7 µM (inactive).
As usually defined, the AC50 is the concentration at which the activity in the assay is half-maximal. In the case of `COc1ccc(CCN(C)C(=O)C2CCCN(Cc3ccccc3)C2)cc1OC` (centres undefined), the AC50 in the assay with Trypanosoma cruzi was 1.4 µM (active); in [7] it was 47.4 µM (active).
With `CC1CCc2c(sc(Nc3nc4c(F)cccc4s3)c2C(N)=O)C1` (centres undefined), the concentration at half-maximal activity (AC50) in [8] was 10.9 µM (active). In addition, the figures for the IC50 (at Leucine aminopeptidase; in [9]) were 18 µM (active) and 3.83 µM (active), respectively.
In the case of `Cc1csc2nc(O)c(C(=O)NCCC3=CCCCC3)c(=O)n12`, in [10], the IC50 was 4.07 µM (active).
As usually defined, the Ki is a dissociation constant, usually derived from enzyme kinetics or from competition with a known ligand. `NC(=O)c1c(N)sc2c1CCCCCCCCCC2`: in [11], the Ki was 39.8 µM (inactive).
